Experimental data reported in patent US20240294531A1, “COVALENT HETEROCYCLES AND USES THEREOF” (Kumquat Biosciences Inc., priority 2022, published 2024).

What was measured:
Type in all cases: binding
[1] = molecular target: T1, BTK wildtype protein (Homo sapiens (Human), UniProt Q06187); experiment: BTK wildtype HTRF displacement assay; details: 1-hour incubation; read-out: BTK (wt) IC50
How it was run: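 Tracer-displacement HTRF format: compound and tracer 239 compete at the BTK active site, detected via anti-GST-Tb on GST-tagged full-length enzyme. One-hour room-temperature incubation; compounds dosed at six four-fold steps down from 5 μM. Percent inhibition versus DMSO gives IC50 by constrained four-parameter logistic fit.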
Target sequence in this assay (Q06187 2-659): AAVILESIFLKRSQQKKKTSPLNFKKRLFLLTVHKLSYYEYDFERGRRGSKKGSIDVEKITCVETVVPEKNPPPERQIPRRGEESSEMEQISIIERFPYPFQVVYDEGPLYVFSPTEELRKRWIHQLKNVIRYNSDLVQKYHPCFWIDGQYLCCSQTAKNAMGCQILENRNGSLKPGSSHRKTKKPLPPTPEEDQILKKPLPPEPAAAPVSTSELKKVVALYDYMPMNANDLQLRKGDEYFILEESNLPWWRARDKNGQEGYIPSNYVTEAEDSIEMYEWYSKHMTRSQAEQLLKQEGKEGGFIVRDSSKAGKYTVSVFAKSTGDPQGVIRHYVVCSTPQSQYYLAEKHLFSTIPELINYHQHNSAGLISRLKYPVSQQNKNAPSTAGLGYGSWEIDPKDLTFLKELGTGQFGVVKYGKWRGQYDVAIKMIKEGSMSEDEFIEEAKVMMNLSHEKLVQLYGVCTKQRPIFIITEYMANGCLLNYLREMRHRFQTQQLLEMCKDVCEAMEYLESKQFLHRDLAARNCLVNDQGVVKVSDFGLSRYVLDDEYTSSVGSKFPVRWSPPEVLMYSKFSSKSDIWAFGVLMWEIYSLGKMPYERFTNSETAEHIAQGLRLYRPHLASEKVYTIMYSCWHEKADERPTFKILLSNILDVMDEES

[2] = molecular target: BTK C481S protein (Homo sapiens (Human), UniProt Q06187, C481S); experiment: BTK C481S HTRF displacement assay; details: 1-hour incubation
BTK C481S protein, sequence (Q06187 2-659 C481S): as the sequence (Q06187 2-659) above, with C480S counted along it
How it was run: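 Tracer displacement read by HTRF after 1 hour at room temperature: GST-BTK C481S 2-659, 50 nM tracer 239 (Kd 54 nM), anti-GST antibody, compound in six four-fold doses from 5 μM. Percent inhibition versus DMSO fitted (bottom 0, top 100) for IC50, converted to KI via Cheng-Prusoff.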

[3] = molecular target: T1, BTK wildtype protein; experiment: Kinact/KI determination for BTK protein inhibitors (Kobs)
Experimental: Test compounds were prepared as 10 mM stock solutions in DMSO (Fisher cat #BP231-100). Human recombinant BTK wildtype protein 393-659 or BTK C481S protein 393-659 was produced in house or purchased from Saromics Biostructures AB (Lund, Sweden). BTK protein was diluted to 1 μM in buffer (20 mM Hepes, pH 7.5, 150 mM NaCl, 1 mM MgCl2, 1 mM DTT). For testing BTK modification, compounds were diluted to 50× final test concentration in DMSO in 96-well storage plates. 1 μL of the diluted 50× compounds were added to appropriate wells in the PCR plate (Fisher cat #AB-0800). Increasing concentrations of compounds were added to separate wells, resulting in final assay compound concentrations of 3 μM, 10 μM, 30 μM and 100 μM. 49 μL of the stock protein solution was added to each well of the 96-well PCR plate. Reactions were mixed carefully. The plate was sealed well with aluminum plate seal and stored in a drawer at room temperature. After different incubation times, the reactions were quenched by adding 5 μL of 2% formic acid (Fisher cat #A117-50) in MilliQ H2O to each well followed by mixing with a pipette. The plate was then resealed with aluminum seal and stored until mass spectrometry analysis.
The extent of covalent modification of BTK proteins was determined by liquid chromatography electrospray mass spectrometry analysis of the intact proteins using a Thermo Q-Exactive Plus mass spectrometer. 20 μL of sample was injected onto a bioZen 3.6 μm Intact C4 column (Phenomenex cat #00B-4767-AN) placed in a column oven set to 40° C. and separated using a LC gradient from 20% to 60% solvent B. Solvent A was 0.1% formic acid and solvent B was 0.1% formic acid in acetonitrile. HESI source settings were set to 40, 5 and 1 for the sheath, auxiliary and sweep gas flow, respectively. The spray voltage was 4 kV, and the capillary temperature was 320° C. S-lens RF level was 50 and auxiliary gas heater temperature was set to 200° C. The mass spectrometry was acquired using a scan range from 650 to 1750 m/z using positive polarity at a mass resolution of 70,000, AGC target of 1e6 ions and maximum injection time of 250 ms. The recorded protein mass spectrum was deconvoluted from the raw data file using Protein Deconvolution v4.0 (Thermo). The protein mass, adduct masses and their corresponding peak intensities were exported to Excel (Microsoft). The peak intensities for the unmodified and modified protein were used to calculate the percent covalent modification of the BTK protein based on the following equation: % BTK protein modification=((BTK−compound)/(BTK)+(BTK−Compound))*100.
The Kinact/KI is a rate constant describing the efficiency of covalent bond formation resulting from the potency (KI) of the first reversible binding event and the maximum potential rate (Kinact) of inactivation. The percent […] protein modification was plotted as a function of time using Prism version 9.4.1 (GraphPad), and the observed rate of modification (Kobs), a first-order rate constant with units of inverse time, was estimated using nonlinear regression at each compound concentration. […] If Kobs is increasing with compound concentration, KI is higher than 3 μM. Kinact/KI can be estimated by plotting Kobs values against each compound concentration used in separate reactions. The Kobs values are fitted to determine Kinact and KI using the following equation, Kobs=(Kinact×[compound conc])/(KI+[compound conc]).
Target sequence in this assay (Q06187 393-659): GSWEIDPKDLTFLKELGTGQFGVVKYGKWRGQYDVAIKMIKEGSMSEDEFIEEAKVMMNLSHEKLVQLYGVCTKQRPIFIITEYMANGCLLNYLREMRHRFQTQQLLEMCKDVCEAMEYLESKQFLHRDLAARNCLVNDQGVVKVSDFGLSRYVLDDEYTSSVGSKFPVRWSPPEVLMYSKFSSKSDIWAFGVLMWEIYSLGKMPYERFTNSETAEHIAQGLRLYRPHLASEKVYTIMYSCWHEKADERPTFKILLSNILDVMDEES

| SMILES | IC50 [1] [µM] | IC50 [2] [µM] | BTK (wt) Kobs [3] |
| --- | --- | --- | --- |
| COc1ccc(F)cc1C(=O)NCc1ccc(-c2nn(C[C@H]3CCC[C@H]3CN(C)C(=O)n3cncn3)c3ncnc(N)c23)cc1 [Compound 307, N-(((1R,2S)-2-((4-amino-3-(4-((5-fluoro-2-methoxybenzamido)methyl)phenyl)-1H-pyrazolo [3,4-d]pyrimidin-1-yl)methyl)cyclopentyl)methyl)-N-methyl-1H-1,2,4-triazole-1-carboxamide] | ≤ 1 | ≤ 1 |  |
| COc1ccc(F)cc1C(=O)NCc1ccc(-c2nn(C(CCN(C)C(=O)n3cncn3)C3CC3)c3ncnc(N)c23)cc1 (centres unmarked) [Compound 161] | ≤ 1 | > 1 |  |
| COc1ccc(F)cc1C(=O)NCc1ccc(-c2nn(C[C@H](C)N(C)C(=O)n3cncn3)c3ncnc(N)c23)cc1 [Compound 315, (S)-N-(1-(4-amino-3-(4-((5-fluoro-2-methoxybenzamido)methyl)phenyl)-1H-pyrazolo[3,4-d]pyrimidin-1-yl)propan-2-yl)-N-methyl-1H-1,2,4-triazole-1-carboxamide] | > 1 | > 1 |  |
| COCCC(Cn1nc(-c2ccc(CNC(=O)c3cc(F)ccc3OC)cc2)c2c(N)ncnc21)N(C)C(=O)n1cncn1 (centres unmarked) [Compound 214, N-(1-(4-amino-3-(4-((5-fluoro-2-methoxybenzamido)methyl)phenyl)-1H-pyrazolo[3,4-d]pyrimidin-1-yl)-4-methoxy-butan-2-yl)-N-methyl-1H-1,2,4-triazole-1-carboxamide] | > 1 | > 1 |  |
| COc1ccc(C)cc1C(=O)NCc1ccc(-c2nn(C3CCC(N(C)C(=O)n4cncn4)C3)c3ncnc(N)c23)cc1 (centres unmarked) [Compound 275, N-(3-(4-amino-3-(4-((2-methoxy-5-methylbenzamido)methyl)phenyl)-1H-pyrazolo[3,4-d]pyrimidin-1-yl)cyclopentyl)-N-methyl-1H-1,2,4-triazole-1-carboxamide] | ≤ 1 | ≤ 1 |  |
| COc1ccc(F)cc1C(=O)NCc1ccc(-c2nn([C@H]3CC[C@H](N(C)C(=O)n4cncn4)C3)c3ncnc(N)c23)cc1 [Compound 312, N-((1S,3S)-3-(4-amino-3-(4-((5-fluoro-2-methoxybenzamido)methyl)phenyl)-1H-pyrazolo [3,4-d]pyrimidin-1-yl)cyclopentyl)-N-methyl-1H-1,2,4-triazole-1-carboxamide] | ≤ 1 | ≤ 1 |  |
| COc1ccc(F)cc1C(=O)NCc1ccc(-c2nn(C(C)CN(C)C(=O)n3cncn3)c(N)c2C(N)=O)cc1 (centres unmarked) [Compound 218, N-(2-(5-amino-4-carbamoyl-3-(4-((5-fluoro-2-methoxybenzamido)methyl)phenyl)-1H-pyrazol-1-yl)propyl)-N-methyl-1H-1,2,4-triazole-1-carboxamide] | ≤ 1 | ≤ 1 |  |
| COc1ccc(C)cc1C(=O)NCc1ccc(-c2nn(C3CCC(N(C)C(=O)n4cnnn4)C3)c3ncnc(N)c23)cc1 (centres unmarked) [Compound 273, N-(3-(4-amino-3-(4-((2-methoxy-5-methylbenzamido)methyl)phenyl)-1H-pyrazolo[3,4-d]pyrimidin-1-yl)cyclopentyl)-N-methyl-1H-tetrazole-1-carboxamide] | ≤ 1 | ≤ 1 |  |
| COc1ccc(F)cc1C(=O)NCc1ccc(-c2nn(-c3cccc(N(C)C(=O)n4cncn4)c3)c3ncnc(N)c23)cc1 [Compound 187, N-(3-(4-amino-3-(4-((5-fluoro-2-methoxybenzamido)methyl)phenyl)-1H-pyrazolo[3,4-d]pyrimidin-1-yl)phenyl)-N-methyl-1H-1,2,4-triazole-1-carboxamide] | ≤ 1 | ≤ 1 |  |
| NC(=O)c1c(-c2ccc(Oc3ccccc3)cc2)nn(C2CCCC3C2CCN3C(=O)n2cncn2)c1N (centres unmarked) [Compound 253, 1-(1-(1H-1,2,4-triazole-1-carbonyl)octahydro-1H-indol-4-yl)-5-amino-3-(4-phenoxyphenyl)-1H-pyrazole-4-carboxamide] |  |  | 248, 249, 250, 253, 254, 256, 259, 260, 261, 264, 265, M^−1 · s^−1 |
| COc1ccc(F)cc1C(=O)NCc1ccc(-c2nn(C3CCCCC3CN(C)C(=O)n3cncn3)c3ncnc(N)c23)cc1 (centres unmarked) [Compound 198, N-((2-(4-amino-3-(4-((5-fluoro-2-methoxybenzamido)methyl)phenyl)-1H-pyrazolo[3,4-d]pyrimidin-1-yl)cyclohexyl)methyl)-N-methyl-1H-1,2,4-triazole-1-carboxamide] | ≤ 1 | ≤ 1 |  |

Continued, in another order:

| IC50 [1] [µM] | IC50 [2] [µM] | SMILES | BTK (wt) Kobs [3] |
| --- | --- | --- | --- |
| ≤ 1 | ≤ 1 | CN(C(=O)n1cncn1)C1CCC(C2CCNc3c(C(N)=O)c(-c4ccc(Oc5ccccc5)cc4)nn32)CC1 (centres unmarked) [Compound 196, 7-(4-(N-methyl-1H-1,2,4-triazole-1-carboxamido)cyclohexyl)-2-(4-phenoxyphenyl)-4,5,6,7-tetrahydropyrazolo[1,5-a] pyrimidine-3-carboxamide] |  |
| ≤ 1 | ≤ 1 | CN(C(=O)n1cnc(Cl)n1)C1CCCC(n2nc(-c3ccc(Oc4ccccc4)cc3)c3c(N)ncnc32)C1 (centres unmarked) [Compound 239, N-(3-(4-amino-3-(4-phenoxyphenyl)-1H-pyrazolo[3,4-d]pyrimidin-1-yl)cyclohexyl)-3-chloro-N-methyl-1H-1,2,4-triazole-1-carboxamide] |  |
| ≤ 1 | ≤ 1 | COc1ccc(F)cc1C(=O)NCc1ccc(-c2nn([C@H]3CCCC[C@@H](N(C)C(=O)n4cncn4)C3)c(N)c2C(N)=O)cc1 [Compound 222, N-((1R,3S)-3-(5-amino-4-carbamoyl-3-(4-((5-fluoro-2-methoxybenzamido)methyl)phenyl)-1H-pyrazol-1-yl)cycloheptyl)-N-methyl-1H-1,2,4-triazole-1-carboxamide] |  |
| ≤ 1 | ≤ 1 | CN(C(=O)n1cnc(Cl)n1)C1CCC(n2nc(-c3ccc(Oc4ccccc4)cc3)c3c(N)ncnc32)CC1 (centres unmarked) [Compound 299, N-(4-(4-amino-3-(4-phenoxyphenyl)-1H-pyrazolo[3,4-d]pyrimidin-1-yl)cyclohexyl)-3-chloro-N-methyl-1H-1,2,4-triazole-1-carboxamide] |  |
| > 1 | > 1 | CC(C)[C@H](C1CCNc2c(C(N)=O)c(-c3ccc(Oc4ccccc4)cc3)nn21)N(C)C(=O)n1cncn1 (stereo partly drawn) [Compound 242, 7-((R)-2-methyl-1-(N-methyl-1H-1,2,4-triazole-1-carboxamido)propyl)-2-(4-phenoxyphenyl)-4,5,6,7-tetrahydropyrazolo[1,5-a] pyrimidine-3-carboxamide] |  |
| ≤ 1 | ≤ 1 | CN(C(=O)n1cncn1)C1CCCCC1n1nc(-c2ccc(Oc3ccccc3)cc2)c2c(N)ncnc21 (centres unmarked) [Compound 263, N-(2-(4-amino-3-(4-phenoxyphenyl)-1H-pyrazolo[3,4-d]pyrimidin-1-yl)cyclohexyl)-N-methyl-1H-1,2,4-triazole-1-carboxamide] |  |
| > 1 | > 1 | CCN(CC1CCNc2c(C(N)=O)c(-c3ccc(Oc4ccccc4)cc3)nn21)C(=O)n1cncn1 (centres unmarked) [Compound 120, 7-((N-ethyl-1H-1,2,4-triazole-1-carboxamido)methyl)-2-(4-phenoxyphenyl)-4,5,6,7-tetrahydro-pyrazolo[1,5-a]pyrimidine-3-carboxamide] |  |
